This note sets out measurements from ChEMBL document CHEMBL4002601, “A triple exon-skipping luciferase reporter assay identifies a new CLK inhibitor pharmacophore” (Bioorg Med Chem Lett, 2017).

The target of data set [1] is T1, Dual specificity protein kinase CLK1 (Homo sapiens, UniProt P49759). Put plainly: Inhibition of CLK mediated SF3B1 activation in human SK-MEL-2 cells assessed as MDM2-pre mRNA exon skipping after 4 hrs by luciferase reporter gene assay relative to control. It counts as cell-based. On the technique in general: Reporter assays use an easily measured gene product as a stand-in for the process of interest.
Target sequence in this assay (P49759 whole entry): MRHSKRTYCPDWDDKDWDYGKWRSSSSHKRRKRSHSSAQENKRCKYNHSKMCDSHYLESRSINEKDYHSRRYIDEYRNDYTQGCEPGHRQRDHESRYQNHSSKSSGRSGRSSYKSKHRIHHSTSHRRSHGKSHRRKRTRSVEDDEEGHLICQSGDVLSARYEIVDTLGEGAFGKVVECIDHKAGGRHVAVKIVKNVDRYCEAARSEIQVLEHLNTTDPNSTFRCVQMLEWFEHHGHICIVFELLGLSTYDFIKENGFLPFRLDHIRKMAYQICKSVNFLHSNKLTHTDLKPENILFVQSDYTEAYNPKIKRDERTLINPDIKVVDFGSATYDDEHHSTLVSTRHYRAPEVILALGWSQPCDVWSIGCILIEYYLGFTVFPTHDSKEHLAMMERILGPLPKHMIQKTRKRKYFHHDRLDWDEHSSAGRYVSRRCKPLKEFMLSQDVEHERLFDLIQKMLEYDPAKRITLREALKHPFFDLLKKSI

Data set [2] deals with T1, Dual specificity protein kinase CLK1. Put plainly: Inhibition of CLK mediated SF3B1 activation in human Rh-18 cells assessed as MDM2-pre mRNA exon skipping at 10 uM after 8 hrs by RT-PCR method. It counts as cell-based.
Target sequence in this assay (P49759 whole entry, looked up): as the sequence (P49759 whole entry) above
The target is the same in data set [3]. Put plainly: Inhibition of human CLK1 using substrate ERMRPRKRQGSVRRRV in presence of [gamma-33P]ATP after 40 mins by scintillation counter method.
Target sequence in this assay (P49759 whole entry): as above
The target of data set [4] is Dual specificity protein kinase CLK2 (Homo sapiens, UniProt P49760). Put plainly: Inhibition of human CLK2 using YRRAAVPPSPSLSRHSSPHQS(p)EDEEE as substrate in presence of [gamma-33P]ATP after 40 mins by scintillation counter method.
For data set [5], the target named is Dual specificity protein kinase CLK3 (Homo sapiens, UniProt P49761). As to the kind of experiment: Inhibition of human CLK3 using ERMRPRKRQGSVRRRV as substrate in presence of [gamma-33P]ATP after 40 mins by scintillation counter method.
In data set [6] the target is Dual specificity protein kinase CLK4 (Homo sapiens, UniProt Q9HAZ1). As to the kind of experiment: Inhibition of human CLK4 using YRRAAVPPSPSLSRHSSPHQS(p)EDEEE as substrate in presence of [gamma-33P]ATP after 40 mins by scintillation counter method.
Data set [7] addresses Cyclin-dependent kinase 1/cyclin B1 (Homo sapiens, UniProt P06493). Put plainly: Inhibition of human CDK1/cyclinB using Histone H1 as substrate in presence of [gamma-33P]ATP after 40 mins by scintillation counter method. It counts as protein-complex assay.
Data set [8] deals with CDK4/Cyclin D3 (Homo sapiens, UniProt P11802). Put plainly: (§1) Inhibition of human CDK4/cyclinD3 using Histone H1 as substrate in presence of [gamma-33P]ATP after 40 mins by scintillation counter method. In kind it is protein-complex assay.
In data set [9] the target is CDK6/cyclin D3 (Homo sapiens, UniProt Q00534). Put plainly: (§2) Inhibition of human CDK6/cyclinD3 using Histone H1 as substrate in presence of [gamma-33P]ATP after 40 mins by scintillation counter method. It counts as protein-complex assay.
Data set [10] concerns the target T1, Dual specificity protein kinase CLK1. Put plainly: Inhibition of CLK mediated SF3B1 activation in human SK-MEL-2 cells assessed as MDM2-pre mRNA exon skipping at 10 uM after 4 hrs by luciferase reporter gene assay relative to control. Set-up: Activity: scale not given: the % may be the effect or the level left. In kind it is cell-based.
Target sequence in this assay (P49759 whole entry, looked up): as the sequence (P49759 whole entry) above
Data set [11] can be described thus: Solubility of the compound. In kind it is physicochemical.
Data set [12] addresses CDK4/Cyclin D3 (Homo sapiens, UniProt P11802+P30281). The data set is described as §1. It counts as protein-complex assay.
Data set [13] concerns the target CDK6/cyclin D3 (Homo sapiens, UniProt P30281+Q00534). The description is as §2. In kind it is protein-complex assay.
In data set [14] the target is T1, Dual specificity protein kinase CLK1. As to the kind of experiment: Inhibition of CLK mediated SF3B1 activation in human HeLa cells assessed as MDM2-pre mRNA exon skipping by luciferase reporter gene assay. It counts as cell-based.
Target sequence in this assay (P49759 whole entry): as the sequence (P49759 whole entry) above

Each structure is given as a SMILES string. Calls of active or inactive are those of the source. The calls are words filed in the database; no cut-off is given here.

The term EC50 denotes the midpoint of the concentration-response curve. The IC50 is the concentration that inhibits the measured activity by half.

Chain of CDK4/Cyclin D3 (Homo sapiens, UniProt P11802) (P11802 whole entry): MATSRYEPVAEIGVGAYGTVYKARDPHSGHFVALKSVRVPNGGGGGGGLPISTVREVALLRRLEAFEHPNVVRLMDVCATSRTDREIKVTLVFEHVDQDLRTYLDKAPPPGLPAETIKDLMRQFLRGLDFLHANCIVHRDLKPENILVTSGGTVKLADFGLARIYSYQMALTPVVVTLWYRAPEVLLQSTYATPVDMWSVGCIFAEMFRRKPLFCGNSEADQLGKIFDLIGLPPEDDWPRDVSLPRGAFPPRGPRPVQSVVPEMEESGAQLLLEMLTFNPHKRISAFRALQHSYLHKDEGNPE
Chain of CDK4/Cyclin D3 (Homo sapiens, UniProt P11802) (P30281 whole entry, further chain): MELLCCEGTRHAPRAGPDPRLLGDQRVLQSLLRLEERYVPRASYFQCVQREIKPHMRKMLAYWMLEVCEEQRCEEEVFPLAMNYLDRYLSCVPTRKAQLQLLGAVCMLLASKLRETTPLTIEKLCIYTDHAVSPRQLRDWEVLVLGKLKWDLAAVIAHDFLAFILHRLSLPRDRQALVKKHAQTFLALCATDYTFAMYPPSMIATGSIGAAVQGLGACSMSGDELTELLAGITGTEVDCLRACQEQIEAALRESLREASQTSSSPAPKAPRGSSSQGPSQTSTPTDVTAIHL
Chain of Dual specificity protein kinase CLK3 (P49761 whole entry): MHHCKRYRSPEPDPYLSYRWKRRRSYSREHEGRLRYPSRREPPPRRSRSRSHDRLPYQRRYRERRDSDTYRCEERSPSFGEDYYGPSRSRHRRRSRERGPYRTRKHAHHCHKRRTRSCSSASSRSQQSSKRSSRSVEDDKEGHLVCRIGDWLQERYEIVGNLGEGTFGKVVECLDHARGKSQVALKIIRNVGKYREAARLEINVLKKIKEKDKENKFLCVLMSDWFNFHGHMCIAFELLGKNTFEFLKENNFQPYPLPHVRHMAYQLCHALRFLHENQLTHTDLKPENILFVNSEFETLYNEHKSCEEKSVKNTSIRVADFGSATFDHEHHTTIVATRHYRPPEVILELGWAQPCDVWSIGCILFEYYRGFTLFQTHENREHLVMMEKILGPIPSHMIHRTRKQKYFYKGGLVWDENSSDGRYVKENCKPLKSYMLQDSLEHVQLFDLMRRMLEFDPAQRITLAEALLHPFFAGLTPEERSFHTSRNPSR
Chain of CDK6/cyclin D3 (Homo sapiens, UniProt Q00534) (P30281 whole entry): as the sequence (P30281 whole entry, further chain) above
Chain of CDK6/cyclin D3 (Homo sapiens, UniProt Q00534) (Q00534 whole entry): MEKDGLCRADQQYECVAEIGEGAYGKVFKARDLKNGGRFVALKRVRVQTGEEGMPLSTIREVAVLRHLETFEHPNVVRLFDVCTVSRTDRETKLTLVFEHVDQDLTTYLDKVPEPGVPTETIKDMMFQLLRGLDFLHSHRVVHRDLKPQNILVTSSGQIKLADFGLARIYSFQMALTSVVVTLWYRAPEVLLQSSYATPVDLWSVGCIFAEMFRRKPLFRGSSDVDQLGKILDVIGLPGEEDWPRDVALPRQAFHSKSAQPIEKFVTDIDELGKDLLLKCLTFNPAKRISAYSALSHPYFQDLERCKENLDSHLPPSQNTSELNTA
Chain of Cyclin-dependent kinase 1/cyclin B1 (P06493 whole entry): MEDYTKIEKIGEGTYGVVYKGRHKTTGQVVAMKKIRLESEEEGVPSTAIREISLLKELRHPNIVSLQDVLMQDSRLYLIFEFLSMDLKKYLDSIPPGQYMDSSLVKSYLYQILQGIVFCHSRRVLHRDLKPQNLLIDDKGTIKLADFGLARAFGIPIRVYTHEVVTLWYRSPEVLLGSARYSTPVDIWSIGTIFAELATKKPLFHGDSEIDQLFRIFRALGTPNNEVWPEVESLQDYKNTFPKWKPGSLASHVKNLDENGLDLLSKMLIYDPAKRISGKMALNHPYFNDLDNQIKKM
Chain of Cyclin-dependent kinase 1/cyclin B1 (P14635 whole entry, further chain): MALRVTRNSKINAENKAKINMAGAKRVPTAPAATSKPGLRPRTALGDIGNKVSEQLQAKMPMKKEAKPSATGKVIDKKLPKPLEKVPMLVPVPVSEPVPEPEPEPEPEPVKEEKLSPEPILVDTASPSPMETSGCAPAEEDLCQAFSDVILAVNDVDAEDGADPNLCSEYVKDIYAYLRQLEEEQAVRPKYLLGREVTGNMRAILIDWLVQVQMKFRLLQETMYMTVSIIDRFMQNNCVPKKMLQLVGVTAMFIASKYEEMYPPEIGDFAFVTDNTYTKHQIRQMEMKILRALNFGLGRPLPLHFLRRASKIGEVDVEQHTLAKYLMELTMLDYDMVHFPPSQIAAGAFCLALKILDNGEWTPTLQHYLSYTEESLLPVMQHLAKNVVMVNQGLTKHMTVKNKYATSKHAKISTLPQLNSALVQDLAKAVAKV
Chain of Dual specificity protein kinase CLK4 (Q9HAZ1 whole entry): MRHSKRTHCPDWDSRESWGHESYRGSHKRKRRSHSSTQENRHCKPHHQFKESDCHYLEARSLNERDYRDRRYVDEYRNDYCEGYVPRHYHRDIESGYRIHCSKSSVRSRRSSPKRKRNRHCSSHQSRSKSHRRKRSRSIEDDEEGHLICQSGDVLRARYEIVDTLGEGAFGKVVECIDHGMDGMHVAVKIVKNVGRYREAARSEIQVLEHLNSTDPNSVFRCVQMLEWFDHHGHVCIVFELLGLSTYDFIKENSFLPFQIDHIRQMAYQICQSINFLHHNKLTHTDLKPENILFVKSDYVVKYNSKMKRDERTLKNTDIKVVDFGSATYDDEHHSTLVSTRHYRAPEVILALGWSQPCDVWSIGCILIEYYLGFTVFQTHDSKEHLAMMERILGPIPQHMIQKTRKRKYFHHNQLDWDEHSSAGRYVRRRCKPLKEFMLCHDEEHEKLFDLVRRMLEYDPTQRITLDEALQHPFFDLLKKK
Chain of Dual specificity protein kinase CLK2 (P49760 whole entry): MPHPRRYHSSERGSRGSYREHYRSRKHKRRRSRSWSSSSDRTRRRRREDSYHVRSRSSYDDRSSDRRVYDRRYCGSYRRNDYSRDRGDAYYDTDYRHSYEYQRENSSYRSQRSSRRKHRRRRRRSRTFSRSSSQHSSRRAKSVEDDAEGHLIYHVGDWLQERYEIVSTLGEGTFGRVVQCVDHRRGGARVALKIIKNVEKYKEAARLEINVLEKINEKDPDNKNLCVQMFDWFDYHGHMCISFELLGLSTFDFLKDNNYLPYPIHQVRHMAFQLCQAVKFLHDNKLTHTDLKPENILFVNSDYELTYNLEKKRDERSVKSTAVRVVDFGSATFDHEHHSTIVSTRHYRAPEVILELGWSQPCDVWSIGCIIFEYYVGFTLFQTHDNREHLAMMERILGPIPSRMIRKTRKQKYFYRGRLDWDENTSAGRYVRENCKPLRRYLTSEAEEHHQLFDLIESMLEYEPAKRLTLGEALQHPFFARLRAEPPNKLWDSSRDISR
Chain of CDK4/Cyclin D3 (Homo sapiens, UniProt P11802+P30281) (P11802 whole entry): as the sequence (P11802 whole entry) above
Chain of CDK4/Cyclin D3 (Homo sapiens, UniProt P11802+P30281) (P30281 whole entry): as the sequence (P30281 whole entry, further chain) above
Chain of CDK6/cyclin D3 (Homo sapiens, UniProt P30281+Q00534) (P30281 whole entry): as the sequence (P30281 whole entry, further chain) above
Chain of CDK6/cyclin D3 (Homo sapiens, UniProt P30281+Q00534) (Q00534 whole entry): as the sequence (Q00534 whole entry) above

On to `CCn1cnc2c(Nc3cccc(Cl)c3)nc(N[C@@H]3CCCC[C@@H]3N)nc21` (racemic), for which, in [1] (read-out: EC50), the EC50 is 4200 nM. In addition, in data set [2], the inhibition result is “Active”. The IC50 in [3] was 148 nM; in data set [4] it was 111 nM; in [5], > 1000 nM; in data set [6], 104 nM; in data set [7], 382 nM; at CDK4/Cyclin D3 [8], 573 nM. Besides, on CDK6/cyclin D3 [9], the IC50 is > 1000 nM. Also, the fold change (FC) in [10] was > 3.
As for `CC(=O)Oc1ccc(/C=C/c2cc(OC(C)=O)cc(OC(C)=O)c2)cc1`, the Activity in data set [10] turned out to be 17%.
Turning to `CC(C)n1cnc2c(Nc3cc(N)cc(Cl)c3)nc(N[C@H]3CCCC[C@@H]3N)nc21`, the EC50 in [1] (read-out: EC50) was 23500 nM.
In the case of `CCn1cnc2c(Nc3cccc(Cl)c3)nc(N[C@@H]3CCCC[C@@H]3NC(C)=O)nc21` (racemic), the EC50 result in data set [1] is listed as “Not Active”. In addition, the IC50 in data set [3] is > 1000 nM.
Regarding `CC(=O)Nc1cc(Cl)cc(Nc2nc(N[C@H]3CCCC[C@H]3N)nc3c2ncn3C(C)C)c1`, in data set [1] (read-out: EC50), the EC50 was 17500 nM.
On to `CC(/C=C/[C@@H]1C[C@]2(CO2)CC(C)(C)O1)=C\C[C@H]1CC[C@@H](NC(=O)/C=C\[C@H](C)OC(=O)N(C)C)CC1`, for which the inhibition result in data set [10] was “Active”.
Consider `CC(=O)Nc1cc(Cl)cc(Nc2nc(N[C@@H]3CCCC[C@@H]3N)nc3c2ncn3C(C)C)c1`, for which, in [1] (read-out: EC50), the EC50 was found to be 7300 nM. The IC50 (in data set [7]; at CDK6/cyclin D3 [9]) was > 1000 nM in each case.
With `CC(C)n1cnc2c(Nc3cc(N)cc(Cl)c3)nc(N[C@@H]3CCCNC3)nc21`, the EC50 in [1] (read-out: EC50) amounted to 14000 nM.
In the case of `CC(=O)Nc1cc(Cl)cc(Nc2nc(N[C@@H]3CCCC[C@@H]3N)nc3c2ncn3C(C)C)c1` (racemic) [listing 1 of 2 here], the fold change (FC) in data set [10] was > 3.
For the compound `COc1ccc2c(c1)/C(=C/c1cnc[nH]1)C(=O)N2`, the Activity in data set [10] was 53%.
In the case of `CC(C)n1cnc2c(Nc3cccc(Cl)c3)nc(N[C@H]3CCCC[C@H]3N)nc21`, the EC50 in [1] (read-out: EC50) turned out to be 12200 nM. In data set [10], the fold change (FC) was > 3.
As to `CC1=Nc2ccc(Cl)cc2S(=O)(=O)N1`, the Activity in [10] worked out at 11%.
As to `COCCNc1nc(Nc2cccc(Cl)c2)c2ncn(C(C)C)c2n1`, the EC50 result in [1] is “Not Active”. Also, the solubility result in data set [11] is “Insoluble”.
Take `COc1ccc2c(C)nc(Nc3nc(C)c(C)c(O)n3)nc2c1`: in data set [10], the inhibition entry is “inactive”.
On to `COC(=O)c1c(/C(C#N)=C\N)c2ccc(Cl)c(Cl)c2n1C`, for which the EC50 in [1] (read-out: EC50) stood at 8000 nM. Also, the inhibition entry in [10] was “Active”.
Consider `O=C(O)COc1ccc(Cl)cc1Cl`, for which the Activity in data set [10] came out at 21%.
Take `CC(C)[C@H](CO)Nc1nc(Nc2cc(N)cc(Cl)c2)c2ncn(C(C)C)c2n1` [AMINOPURVALANOL]: the EC50 in [1] (read-out: EC50) is 12000 nM. For the same compound, the inhibition result in [2] was “Active”.
With `CC(=O)Nc1cc(Cl)cc(Nc2nc(N[C@@H]3CCCC[C@@H]3N)nc3c2ncn3C(C)C)c1` (racemic) [listing 2 of 2 here], the EC50 in [1] (read-out: EC50) turned out to be 8100 nM. Also, the IC50 was 19 nM in data set [3], 13 nM in data set [4], 64 nM in data set [6] and 930 nM at CDK4/Cyclin D3 [8].
As to `CCn1cnc2c(Nc3cccc(Cl)c3)nc(N[C@@H]3CCCC[C@H]3N)nc21`, the half-maximal effective concentration (EC50) in data set [1] (read-out: EC50) worked out at 7800 nM. In data set [10], the fold change (FC) is > 3.
For the compound `C#CCCCCCCCCCCC(=O)CC(O)COC(C)=O` (centres undefined), the Activity in data set [10] stood at 14%.
With `CCN1/C(=C/C(C)=O)Sc2ccc(Cl)cc21`, the inhibition entry in data set [10] was “inactive”.
Turning to `CC(C)n1cnc2c(Nc3cc(N)cc(Cl)c3)nc(N[C@H]3CCCNC3)nc21`, the EC50 in data set [1] (read-out: EC50) amounted to 12900 nM.
On to `CC(C)n1cnc2c(Nc3cccc(Cl)c3)nc(N[C@@H]3CCCC[C@H]3N)nc21`, for which the EC50 in data set [1] (read-out: EC50) was determined as 4500 nM. In data set [10], the fold change (FC) was > 3.
As to `Clc1cccc(Nc2nnc(-c3ccccc3)c3ccccc23)c1`, the Activity in data set [10] is 11%.
As for `CC(C)n1cnc2c(Nc3cc(N)cc(Cl)c3)nc(N[C@H]3CCCC[C@H]3N)nc21`, in data set [1] (read-out: EC50), the EC50 is 18700 nM.
The same measure, in the same setting: for `CC(C)n1cnc2c(Nc3cc(N)cc(Cl)c3)nc(N[C@@H]3CCCC[C@H]3N)nc21` the value was 9700 nM.
Turning to `CC(C)n1cnc2c(Nc3cc(N)cc(Cl)c3)nc(N[C@@H]3CCCC[C@@H]3N)nc21`, the EC50 in data set [1] (read-out: EC50) was found to be 3000 nM. The IC50 in data set [5] was > 1000 nM; in data set [7] it was 532 nM; at CDK4/Cyclin D3 [12], > 1000 nM; at CDK6/cyclin D3 [13], > 1000 nM.
In the case of `CC(C)n1cnc2c(Nc3cc(N)cc(Cl)c3)nc(N[C@@H]3CCCC[C@@H]3N)nc21` (racemic), the EC50 in data set [1] (read-out: EC50) stood at 6500 nM. The IC50 was 18 nM in [3]; 16 nM in [4]; > 1000 nM in data set [5]; 54 nM in data set [6]; 973 nM in data set [7]; > 1000 nM at CDK4/Cyclin D3 [8]. The IC50 on CDK6/cyclin D3 [9] is > 1000 nM.
Turning to `CC(C)n1cnc2c(Nc3cc(N)cc(Cl)c3)nc(N[C@@H]3CCNC3)nc21`, the EC50 in data set [1] (read-out: EC50) turned out to be 26400 nM.
For `CC(C)n1ccc2c(Nc3cccc(Cl)c3)nc(N[C@H]3CCCC[C@H]3N)nc21` (racemic), the IC50 in data set [3] was > 1000 nM. The inhibition entry in data set [10] is “inactive”.
For the compound `CCn1cnc2c(Nc3cccc(Cl)c3)nc(N[C@H]3CCCC[C@@H]3N)nc21`, the EC50 in [1] (read-out: EC50) came to 22000 nM. Also, the fold change (FC) in [10] is > 3.
Consider `COc1ccc2c(C)nc(Nc3nc(C)c(C)c(=O)[nH]3)nc2c1`, for which, in data set [14], the EC50 turned out to be 20000 nM.
Consider `CC(C)n1cnc2c(Nc3cc(N)cc(Cl)c3)nc(N[C@H]3CCNC3)nc21`, for which the EC50 in data set [1] (read-out: EC50) turned out to be 12000 nM.
As to `CNC(=O)O[C@@H](C)/C=C\C(=O)N[C@H]1CC[C@@H](C/C=C(C)/C=C/[C@@H]2C[C@]3(CO3)CC(C)(C)O2)CC1`, the EC50 in [1] (read-out: EC50) worked out at 800 nM.
